Reference: ChEMBL document CHEMBL3751764, “Synthesis and in vitro antiproliferative activity of novel pyrazolo[3,4-d]pyrimidine derivatives” (Medchemcomm, 2015)

Experiments:
NCI-H226 [1] = test: Cytotoxicity against human NCI-H226 cells assessed as cell growth at 10 uM after 72 hrs by SRB assay relative to control; assay type: functional; settings: NCI-H226, 72 h, read-out: Activity
[2] = Cytotoxicity against human HCC2998 cells assessed as cell growth at 10 uM after 72 hrs by SRB assay relative to control; assay type: functional; settings: HCC 2998, 72 h, read-out: Activity
[3] = Cytotoxicity against human HCT116 cells assessed as cell growth at 10 uM after 72 hrs by SRB assay relative to control; assay type: functional; settings: HCT-116, 72 h, read-out: Activity
[4] = Cytotoxicity against human HCT15 cells assessed as cell growth at 10 uM after 72 hrs by SRB assay relative to control; assay type: functional; settings: HCT-15, 72 h, read-out: Activity
KM12 = test: Cytotoxicity against human KM12 cells assessed as cell growth at 10 uM after 72 hrs by SRB assay relative to control; assay type: functional; settings: KM12, 72 h, read-out: Activity
[5] = Cytotoxicity against human SW620 cells assessed as cell growth at 10 uM after 72 hrs by SRB assay relative to control; assay type: functional; settings: SW-620, 72 h, read-out: Activity
[6] = Cytotoxicity against human SNB19 cells assessed as cell growth at 10 uM after 72 hrs by SRB assay relative to control; assay type: functional; settings: SNB-19, 72 h, read-out: Activity
[7] = Cytotoxicity against human SNB75 cells assessed as cell growth at 10 uM after 72 hrs by SRB assay relative to control; assay type: functional; settings: SNB-75, 72 h, read-out: Activity
U-251 = test: Cytotoxicity against human U251 cells assessed as cell growth at 10 uM after 72 hrs by SRB assay relative to control; assay type: functional; settings: U-251, 72 h, read-out: Activity
MDA-MB-435 = test: Cytotoxicity against human MDA-MB-435 cells assessed as cell growth at 10 uM after 72 hrs by SRB assay relative to control; assay type: functional; settings: MDA-MB-435, 72 h, read-out: Activity
SK-MEL-28 [8] = test: Cytotoxicity against human SK-MEL-28 cells assessed as cell growth at 10 uM after 72 hrs by SRB assay relative to control; assay type: functional; settings: SK-MEL-28, 72 h, read-out: Activity
[9] = Cytotoxicity against human UACC62 cells assessed as cell growth at 10 uM after 72 hrs by SRB assay relative to control; assay type: functional; settings: UACC-62, 72 h, read-out: Activity
[10] = Cytotoxicity against human IGROV1 cells assessed as cell growth at 10 uM after 72 hrs by SRB assay relative to control; assay type: functional; settings: IGROV-1, 72 h, read-out: Activity
[11] = Cytotoxicity against human OVCAR3 cells assessed as cell growth at 10 uM after 72 hrs by SRB assay relative to control; assay type: functional; settings: OVCAR-3, 72 h, read-out: Activity
[12] = Cytotoxicity against human OVCAR4 cells assessed as cell growth at 10 uM after 72 hrs by SRB assay relative to control; assay type: functional; settings: OVCAR-4, 72 h, read-out: Activity
ACHN = test: Cytotoxicity against human ACHN cells assessed as cell growth at 10 uM after 72 hrs by SRB assay relative to control; assay type: functional; settings: read-out: Activity
[13] = Cytotoxicity against human TK10 cells assessed as cell growth at 10 uM after 72 hrs by SRB assay relative to control; assay type: functional; settings: TK-10, 72 h, read-out: Activity
MDA-MB-231 = test: Cytotoxicity against human MDA-MB-231 cells assessed as cell growth at 10 uM after 72 hrs by SRB assay relative to control; assay type: functional; settings: MDA-MB-231, 72 h, read-out: Activity
[14] = Cytotoxicity against human Hs 578T cells assessed as cell growth at 10 uM after 72 hrs by SRB assay relative to control; assay type: functional; settings: read-out: Activity
[15] = Cytotoxicity against human HL-60(TB) cells assessed as cell growth at 10 uM after 72 hrs by SRB assay relative to control; assay type: functional; settings: HL-60, 72 h, read-out: Activity
A549 [16] = test: Cytotoxicity against human A549 cells assessed as cell growth at 10 uM after 72 hrs by SRB assay relative to control; assay type: functional; settings: A549, 72 h, read-out: Activity
NCI-H226 [17] = test: Cytotoxicity against human NCI-H226 cells after 72 hrs by SRB assay; assay type: functional; settings: NCI-H226, 72 h
[18] = Cytotoxicity against human HCC2998 cells after 72 hrs by SRB assay; assay type: functional; settings: HCC 2998, 72 h
[19] = Cytotoxicity against human SW620 cells after 72 hrs by SRB assay; assay type: functional; settings: SW-620, 72 h
[20] = Cytotoxicity against human SF539 cells after 72 hrs by SRB assay; assay type: functional; settings: SF-539, 72 h
Malme-3M = test: Cytotoxicity against human MALME-3M cells after 72 hrs by SRB assay; assay type: functional
SK-MEL-2 = test: Cytotoxicity against human SK-MEL-2 cells after 72 hrs by SRB assay; assay type: functional; settings: SK-MEL-2, 72 h
SK-MEL-28 [21] = test: Cytotoxicity against human SK-MEL-28 cells after 72 hrs by SRB assay; assay type: functional; settings: SK-MEL-28, 72 h
[22] = Cytotoxicity against human UACC257 cells after 72 hrs by SRB assay; assay type: functional; settings: UACC-257, 72 h
[23] = Cytotoxicity against human OVCAR5 cells after 72 hrs by SRB assay; assay type: functional; settings: OVCAR-5, 72 h
[24] = Cytotoxicity against human OVCAR8 cells after 72 hrs by SRB assay; assay type: functional; settings: OVCAR-8, 72 h
[25] = Cytotoxicity against human NCI-ADR-RES cells after 72 hrs by SRB assay; assay type: functional
[26] = Cytotoxicity against human RXF393 cells after 72 hrs by SRB assay; assay type: functional; settings: RXF 393, 72 h
[27] = Cytotoxicity against human TK10 cells after 72 hrs by SRB assay; assay type: functional; settings: TK-10, 72 h
MCF7 = test: Cytotoxicity against human MCF7 cells after 72 hrs by SRB assay; assay type: functional, cell-based; settings: MCF7, 72 h
A549 [28] = test: Downregulation of cyclin D1 expression in human A549 cells by immunohistochemical analysis relative to control; assay type: functional
[29] = read-out: LC50 (the source's name)

## Cc1ccc2nc(Nc3ncnc4c3cnn4-c3ccccc3)sc2c1
NCI-H226 [1]
  growth at 10 µM: 101%
[2]
  growth at 10 µM: 106%
[3]
  growth at 10 µM: 99.4%
[4]
  growth at 10 µM: 97.8%
KM12
  growth at 10 µM: 98.9%
[5]
  growth at 10 µM: 100%
[6]
  growth at 10 µM: 98.2%
[7]
  growth at 10 µM: 107%
U-251
  growth at 10 µM: 103%
MDA-MB-435
  growth at 10 µM: 91.9%
SK-MEL-28 [8]
  growth at 10 µM: 95.3%
[9]
  growth at 10 µM: 94.7%
[10]
  growth at 10 µM: 99.6%
[11]
  growth at 10 µM: 108%
[12]
  growth at 10 µM: 104%
ACHN
  growth at 10 µM: 107%
[13]
  growth at 10 µM: 118%
MDA-MB-231
  growth at 10 µM: 102%
[14]
  growth at 10 µM: 120%
[15]
  growth at 10 µM: 103%
A549 [16]
  growth at 10 µM: 102%

## O=C(NC1CCCCC1)c1ccc(Nc2ncnc3c2cnn3-c2ccccc2)cc1
NCI-H226 [1]
  growth at 10 µM: 19.1%
[3]
  growth at 10 µM: 37.6%
[4]
  growth at 10 µM: 66.6%
KM12
  growth at 10 µM: 88.5%
[5]
  growth at 10 µM: 72.9%
[6]
  growth at 10 µM: 48.7%
[7]
  growth at 10 µM: -20.4%
U-251
  growth at 10 µM: 40.2%
MDA-MB-435
  growth at 10 µM: 81.2%
SK-MEL-28 [8]
  growth at 10 µM: 62.2%
[9]
  growth at 10 µM: 63.9%
[10]
  growth at 10 µM: 71.1%
[11]
  growth at 10 µM: 87.4%
[12]
  growth at 10 µM: 30.3%
ACHN
  growth at 10 µM: 54.3%
[13]
  growth at 10 µM: 51%
MDA-MB-231
  growth at 10 µM: 8.76%
[14]
  growth at 10 µM: 0.22%
NCI-H226 [17]
  GI50: 3.35 µM
  TGI: 21.5 µM
NCI-H226 [17]; [29]
  CC50: > 100 µM
[18]
  GI50: > 100 µM
  TGI: > 100 µM
[18]; [29]
  CC50: > 100 µM
[19]
  GI50: > 100 µM
  TGI: > 100 µM
[19]; [29]
  CC50: > 100 µM
[20]
  GI50: 3.81 µM
  TGI: 17.1 µM
[20]; [29]
  CC50: 49 µM
Malme-3M
  GI50: 1.97 µM
  TGI: 4.94 µM
Malme-3M; [29]
  CC50: 21 µM
SK-MEL-2
  GI50: 13.6 µM
  TGI: 36.2 µM
SK-MEL-2; [29]
  CC50: 96.3 µM
SK-MEL-28 [21]
  GI50: 3.79 µM
  TGI: > 100 µM
SK-MEL-28 [21]; [29]
  CC50: > 100 µM
[22]
  GI50: 6.42 µM
  TGI: > 100 µM
[22]; [29]
  CC50: > 100 µM
[23]
  GI50: 15.2 µM
  TGI: 95.2 µM
[23]; [29]
  CC50: > 100 µM
[24]
  GI50: 3.87 µM
  TGI: 19.3 µM
[24]; [29]
  CC50: > 100 µM
[25]
  GI50: 7.06 µM
  TGI: > 100 µM
[25]; [29]
  CC50: > 100 µM
[26]
  GI50: 2.43 µM
  TGI: 9.33 µM
[26]; [29]
  CC50: 56.9 µM
[27]
  GI50: 16.5 µM
  TGI: 49.5 µM
[27]; [29]
  CC50: > 100 µM
MCF7
  GI50: 74.1 µM
  LC50: > 100 µM
  TGI: > 100 µM
A549 [28]
  Activity: 51%
[15]
  growth at 10 µM: 106%
A549 [16]
  growth at 10 µM: 16.6%

## Clc1ccc(-n2ncc3c(Nc4ccc(OCc5ccccc5)cc4)ncnc32)cc1
NCI-H226 [1]
  growth at 10 µM: 102%
[2]
  growth at 10 µM: 98%
[3]
  growth at 10 µM: 94.8%
[4]
  growth at 10 µM: 87.2%
KM12
  growth at 10 µM: 80.2%
[5]
  growth at 10 µM: 101%
[7]
  growth at 10 µM: 86.4%
U-251
  growth at 10 µM: 95%
MDA-MB-435
  growth at 10 µM: 83.2%
SK-MEL-28 [8]
  growth at 10 µM: 90.4%
[9]
  growth at 10 µM: 105%
[10]
  growth at 10 µM: 102%
[11]
  growth at 10 µM: 102%
[12]
  growth at 10 µM: 80.6%
ACHN
  growth at 10 µM: 98.6%
[13]
  growth at 10 µM: 92.1%
[14]
  growth at 10 µM: 96.6%
[15]
  growth at 10 µM: 86.9%
A549 [16]
  growth at 10 µM: 88.8%

## O=c1sc2cc(Nc3ncnc4c3cnn4-c3ccccc3)ccc2n1Cc1ccc(Cl)cc1
NCI-H226 [1]
  growth at 10 µM: 71.4%
[3]
  growth at 10 µM: 80.3%
[4]
  growth at 10 µM: 86.5%
KM12
  growth at 10 µM: 71.6%
[5]
  growth at 10 µM: 84.4%
[6]
  growth at 10 µM: 85.6%
[7]
  growth at 10 µM: 88.3%
U-251
  growth at 10 µM: 96.6%
MDA-MB-435
  growth at 10 µM: 84.2%
SK-MEL-28 [8]
  growth at 10 µM: 90.1%
[9]
  growth at 10 µM: 58.3%
[10]
  growth at 10 µM: 81.8%
[11]
  growth at 10 µM: 86.6%
[12]
  growth at 10 µM: 87%
ACHN
  growth at 10 µM: 74.6%
[13]
  growth at 10 µM: 105%
MDA-MB-231
  growth at 10 µM: 57.7%
[14]
  growth at 10 µM: 81.1%
[15]
  growth at 10 µM: 66.9%
A549 [16]
  growth at 10 µM: 78%

## c1ccc(COc2ccc(Nc3ncnc4c3cnn4-c3ccccc3)cc2)cc1
NCI-H226 [1]
  growth at 10 µM: 103%
[2]
  growth at 10 µM: 108%
[3]
  growth at 10 µM: 106%
[4]
  growth at 10 µM: 72.4%
KM12
  growth at 10 µM: 98.2%
[5]
  growth at 10 µM: 98.7%
[6]
  growth at 10 µM: 96%
[7]
  growth at 10 µM: 102%
U-251
  growth at 10 µM: 106%
MDA-MB-435
  growth at 10 µM: 90.1%
SK-MEL-28 [8]
  growth at 10 µM: 96%
[9]
  growth at 10 µM: 93.3%
[10]
  growth at 10 µM: 100%
[11]
  growth at 10 µM: 113%
[12]
  growth at 10 µM: 91.3%
ACHN
  growth at 10 µM: 104%
[13]
  growth at 10 µM: 111%
MDA-MB-231
  growth at 10 µM: 101%
[14]
  growth at 10 µM: 109%
[15]
  growth at 10 µM: 99.8%
A549 [16]
  growth at 10 µM: 104%
